Converted amounts (≈) assume the structure as drawn.
What was measured:
Staphylococcus aureus [1] = assay: Antimicrobial activity against vancomycin-intermediate Staphylococcus aureus 555 by macrodilution method; assay type: functional
Staphylococcus aureus [2] = assay: Antimicrobial activity against vancomycin-resistant Staphylococcus aureus 510 by macrodilution method; assay type: functional
Staphylococcus aureus [3] = assay: Antimicrobial activity against vancomycin-resistant Staphylococcus aureus 509 by macrodilution method; assay type: functional
Staphylococcus aureus [4] = assay: Antimicrobial activity against heterogeneous vancomycin-intermediate Staphylococcus aureus 168 after 50 passages by macrodilution method; assay type: functional
Staphylococcus aureus [5] = assay: Antimicrobial activity against vancomycin-intermediate Staphylococcus aureus 1287 after 50 passages by macrodilution method; assay type: functional
Staphylococcus aureus [6] = assay: Antimicrobial activity against methicillin-resistant Staphylococcus aureus 525 after 50 passages by macrodilution method; assay type: functional
Staphylococcus aureus [7] = assay: Antimicrobial activity against methicillin-susceptible Staphylococcus aureus 540 after 50 passages by macrodilution method
Staphylococcus aureus [8] = assay: Antimicrobial activity against methicillin-susceptible Staphylococcus aureus 543 after 50 passages by macrodilution method; assay type: functional
Staphylococcus aureus [9] = assay: Antimicrobial activity against vancomycin-resistant Staphylococcus aureus 510 after 50 passages by macrodilution method; assay type: functional
Staphylococcus aureus [10] = assay: Antimicrobial activity against vancomycin-resistant Staphylococcus aureus 509 measured after 10 antibiotic-free subculturing by macrodilution method; assay type: functional
Staphylococcus aureus [11] = assay: Antimicrobial activity against vancomycin-intermediate Staphylococcus aureus 555 measured on day 5 by macrodilution method; assay type: functional; settings: Staphylococcus aureus, 555, 120 h
Staphylococcus aureus [12] = assay: Antimicrobial activity against vancomycin-intermediate Staphylococcus aureus 555 measured on day 10 by macrodilution method; assay type: functional; settings: Staphylococcus aureus, 555, 240 h
Staphylococcus aureus [13] = assay: Antimicrobial activity against vancomycin-intermediate Staphylococcus aureus 555 measured on day 15 by macrodilution method; assay type: functional; settings: Staphylococcus aureus, 555, 360 h
Staphylococcus aureus [14] = assay: Antimicrobial activity against vancomycin-intermediate Staphylococcus aureus 1287 measured on day 15 by macrodilution method; assay type: functional; settings: Staphylococcus aureus, 1287, 360 h
Staphylococcus aureus [15] = assay: Antimicrobial activity against methicillin-susceptible Staphylococcus aureus 540 measured on day 15 by macrodilution method; assay type: functional; settings: Staphylococcus aureus, 540, 360 h
Staphylococcus aureus [16] = assay: Antimicrobial activity against methicillin-susceptible Staphylococcus aureus 543 measured on day 15 by macrodilution method; assay type: functional; settings: Staphylococcus aureus, 543, 360 h
Staphylococcus aureus [17] = assay: Antimicrobial activity against heterogeneous vancomycin-intermediate Staphylococcus aureus 168 measured on day 20 by macrodilution method; assay type: functional; settings: Staphylococcus aureus, 168, 480 h
Staphylococcus aureus [18] = assay: Antimicrobial activity against vancomycin-intermediate Staphylococcus aureus 555 measured on day 20 by macrodilution method; assay type: functional; settings: Staphylococcus aureus, 555, 480 h
Staphylococcus aureus [19] = assay: Antimicrobial activity against methicillin-resistant Staphylococcus aureus 525 measured on day 20 by macrodilution method; assay type: functional; settings: Staphylococcus aureus, 525, 480 h
Staphylococcus aureus [20] = assay: Antimicrobial activity against methicillin-susceptible Staphylococcus aureus 540 measured on day 20 by macrodilution method; assay type: functional; settings: Staphylococcus aureus, 540, 480 h
Staphylococcus aureus [21] = assay: Antimicrobial activity against methicillin-susceptible Staphylococcus aureus 543 measured on day 20 by macrodilution method; assay type: functional; settings: Staphylococcus aureus, 543, 480 h
Staphylococcus aureus [22] = assay: Antimicrobial activity against heterogeneous vancomycin-intermediate Staphylococcus aureus 168 measured on day 25 by macrodilution method; assay type: functional; settings: Staphylococcus aureus, 168, 600 h
Staphylococcus aureus [23] = assay: Antimicrobial activity against vancomycin-intermediate Staphylococcus aureus 555 measured on day 25 by macrodilution method; assay type: functional; settings: Staphylococcus aureus, 555, 600 h
Staphylococcus aureus [24] = assay: Antimicrobial activity against methicillin-resistant Staphylococcus aureus 547 measured on day 25 by macrodilution method; assay type: functional; settings: Staphylococcus aureus, 547, 600 h
Staphylococcus aureus [25] = assay: Antimicrobial activity against methicillin-susceptible Staphylococcus aureus 540 measured on day 25 by macrodilution method; assay type: functional; settings: Staphylococcus aureus, 540, 600 h
Staphylococcus aureus [26] = assay: Antimicrobial activity against methicillin-susceptible Staphylococcus aureus 543 measured on day 25 by macrodilution method; assay type: functional; settings: Staphylococcus aureus, 543, 600 h
Staphylococcus aureus [27] = assay: Antimicrobial activity against heterogeneous vancomycin-intermediate Staphylococcus aureus 873 measured on day 30 by macrodilution method; assay type: functional
Staphylococcus aureus [28] = assay: Antimicrobial activity against vancomycin-intermediate Staphylococcus aureus 555 measured on day 30 by macrodilution method; assay type: functional
Staphylococcus aureus [29] = assay: Antimicrobial activity against methicillin-resistant Staphylococcus aureus 525 measured on day 30 by macrodilution method; assay type: functional
Staphylococcus aureus [30] = assay: Antimicrobial activity against methicillin-resistant Staphylococcus aureus 547 measured on day 30 by macrodilution method; assay type: functional
Staphylococcus aureus [31] = assay: Antimicrobial activity against methicillin-susceptible Staphylococcus aureus 540 measured on day 30 by macrodilution method; assay type: functional
Staphylococcus aureus [32] = assay: Antimicrobial activity against methicillin-susceptible Staphylococcus aureus 543 measured on day 30 by macrodilution method; assay type: functional
Staphylococcus aureus [33] = assay: Antimicrobial activity against heterogeneous vancomycin-intermediate Staphylococcus aureus 168 measured on day 35 by macrodilution method; assay type: functional
Staphylococcus aureus [34] = assay: Antimicrobial activity against vancomycin-intermediate Staphylococcus aureus 555 measured on day 35 by macrodilution method; assay type: functional
Staphylococcus aureus [35] = assay: Antimicrobial activity against methicillin-resistant Staphylococcus aureus 525 measured on day 35 by macrodilution method; assay type: functional
Staphylococcus aureus [36] = assay: Antimicrobial activity against methicillin-resistant Staphylococcus aureus 547 measured on day 35 by macrodilution method; assay type: functional
Staphylococcus aureus [37] = assay: Antimicrobial activity against methicillin-susceptible Staphylococcus aureus 540 measured on day 35 by macrodilution method; assay type: functional
Staphylococcus aureus [38] = assay: Antimicrobial activity against methicillin-susceptible Staphylococcus aureus 543 measured on day 35 by macrodilution method; assay type: functional
Staphylococcus aureus [39] = assay: Antimicrobial activity against heterogeneous vancomycin-intermediate Staphylococcus aureus 168 measured on day 40 by macrodilution method; assay type: functional
Staphylococcus aureus [40] = assay: Antimicrobial activity against vancomycin-intermediate Staphylococcus aureus 555 measured on day 40 by macrodilution method; assay type: functional
Staphylococcus aureus [41] = assay: Antimicrobial activity against methicillin-resistant Staphylococcus aureus 525 measured on day 40 by macrodilution method; assay type: functional
Staphylococcus aureus [42] = assay: Antimicrobial activity against methicillin-susceptible Staphylococcus aureus 540 measured on day 40 by macrodilution method; assay type: functional
Staphylococcus aureus [43] = assay: Antimicrobial activity against heterogeneous vancomycin-intermediate Staphylococcus aureus 168 measured on day 45 by macrodilution method; assay type: functional
Staphylococcus aureus [44] = assay: Antimicrobial activity against vancomycin-intermediate Staphylococcus aureus 555 measured on day 45 by macrodilution method; assay type: functional
Staphylococcus aureus [45] = assay: Antimicrobial activity against vancomycin-intermediate Staphylococcus aureus 1287 measured on day 45 by macrodilution method; assay type: functional
Staphylococcus aureus [46] = assay: Antimicrobial activity against methicillin-resistant Staphylococcus aureus 525 measured on day 45 by macrodilution method; assay type: functional
Staphylococcus aureus [47] = assay: Antimicrobial activity against methicillin-susceptible Staphylococcus aureus 540 measured on day 45 by macrodilution method; assay type: functional
Staphylococcus aureus [48] = assay: Antimicrobial activity against methicillin-susceptible Staphylococcus aureus 543 measured on day 45 by macrodilution method; assay type: functional
Staphylococcus aureus [49] = assay: Antimicrobial activity against heterogeneous vancomycin-intermediate Staphylococcus aureus 168 measured on day 50 by macrodilution method; assay type: functional
Staphylococcus aureus [50] = assay: Antimicrobial activity against vancomycin-intermediate Staphylococcus aureus 555 measured on day 50 by macrodilution method; assay type: functional
Staphylococcus aureus [51] = assay: Antimicrobial activity against vancomycin-intermediate Staphylococcus aureus 1287 measured on day 50 by macrodilution method; assay type: functional
Staphylococcus aureus [52] = assay: Antimicrobial activity against methicillin-resistant Staphylococcus aureus 525 measured on day 50 by macrodilution method; assay type: functional
Staphylococcus aureus [53] = assay: Antimicrobial activity against methicillin-resistant Staphylococcus aureus 547 measured on day 50 by macrodilution method; assay type: functional
Staphylococcus aureus [54] = assay: Antimicrobial activity against methicillin-susceptible Staphylococcus aureus 540 measured on day 50 by macrodilution method; assay type: functional
Staphylococcus aureus [55] = assay: Antimicrobial activity against methicillin-susceptible Staphylococcus aureus 543 measured on day 50 by macrodilution method; assay type: functional
Staphylococcus aureus [56] = assay: microbe, parasite or virus in culture; settings: 555
Description: Antimicrobial activity against vancomycin-intermediate Staphylococcus aureus 555 after 50 passages by macrodilution method

Staphylococcus aureus [57] = assay: microbe, parasite or virus in culture; settings: 547
Description: Antimicrobial activity against methicillin-resistant Staphylococcus aureus 547 after 50 passages by macrodilution method

`CN[C@H](CC(C)C)C(=O)N[C@H]1C(=O)N[C@@H](CC(N)=O)C(=O)N[C@H]2C(=O)N[C@H]3C(=O)N[C@H](C(=O)N[C@H](C(=O)O)c4cc(O)cc(O)c4-c4cc3ccc4O)[C@H](O)c3ccc(c(Cl)c3)Oc3cc2cc(c3O[C@@H]2O[C@H](CO)[C@@H](O)[C@H](O)[C@H]2O[C@H]2C[C@](C)(N)[C@H](O)[C@H](C)O2)Oc2ccc(cc2Cl)[C@H]1O` [VANCOMYCIN] was tested, and the MIC (Staphylococcus aureus [1]) was 8 µg/mL (≈ 5.52 µM), the MIC (Staphylococcus aureus [2]) was 64 µg/mL (≈ 44.2 µM) and the MIC (Staphylococcus aureus [3]) was > 64 µg/mL. It also gave an MIC (Staphylococcus aureus [4]) of 8 µg/mL (≈ 5.52 µM), an MIC (Staphylococcus aureus [5]) of 8 µg/mL (≈ 5.52 µM) and an MIC (Staphylococcus aureus [6]) of 8 µg/mL (≈ 5.52 µM). For the same compound, the MIC (Staphylococcus aureus [7]) was 8 µg/mL (≈ 5.52 µM), the MIC (Staphylococcus aureus [8]) was 8 µg/mL (≈ 5.52 µM) and the MIC (Staphylococcus aureus [9]) was ≥ 64 µg/mL. The MIC (Staphylococcus aureus [10]) was > 64 µg/mL, the MIC (Staphylococcus aureus [11]) was 8 µg/mL (≈ 5.52 µM) and the MIC (Staphylococcus aureus [12]) was 8 µg/mL (≈ 5.52 µM). It also gave an MIC (Staphylococcus aureus [13]) of 8 µg/mL (≈ 5.52 µM), an MIC (Staphylococcus aureus [14]) of 8 µg/mL (≈ 5.52 µM) and an MIC (Staphylococcus aureus [15]) of 8 µg/mL (≈ 5.52 µM). The MIC (Staphylococcus aureus [16]) was 8 µg/mL (≈ 5.52 µM), the MIC (Staphylococcus aureus [17]) was 8 µg/mL (≈ 5.52 µM) and the MIC (Staphylococcus aureus [18]) was 8 µg/mL (≈ 5.52 µM). For the same compound, the MIC (Staphylococcus aureus [19]) was 8 µg/mL (≈ 5.52 µM), the MIC (Staphylococcus aureus [20]) was 8 µg/mL (≈ 5.52 µM) and the MIC (Staphylococcus aureus [21]) was 8 µg/mL (≈ 5.52 µM). The MIC (Staphylococcus aureus [22]) was 8 µg/mL (≈ 5.52 µM), the MIC (Staphylococcus aureus [23]) was 8 µg/mL (≈ 5.52 µM) and the MIC (Staphylococcus aureus [24]) was 8 µg/mL (≈ 5.52 µM). For the same compound, the MIC (Staphylococcus aureus [25]) was 8 µg/mL (≈ 5.52 µM), the MIC (Staphylococcus aureus [26]) was 8 µg/mL (≈ 5.52 µM) and the MIC (Staphylococcus aureus [27]) was 8 µg/mL (≈ 5.52 µM). The MIC (Staphylococcus aureus [28]) was 16 µg/mL (≈ 11 µM), the MIC (Staphylococcus aureus [29]) was 0.06 µg/mL (≈ 0.0414 µM) and the MIC (Staphylococcus aureus [30]) was 16 µg/mL (≈ 11 µM). For the same compound, the MIC (Staphylococcus aureus [31]) was 8 µg/mL (≈ 5.52 µM), the MIC (Staphylococcus aureus [32]) was 8 µg/mL (≈ 5.52 µM) and the MIC (Staphylococcus aureus [33]) was 8 µg/mL (≈ 5.52 µM). It also gave an MIC (Staphylococcus aureus [34]) of 32 µg/mL (≈ 22.1 µM), an MIC (Staphylococcus aureus [35]) of 8 µg/mL (≈ 5.52 µM) and an MIC (Staphylococcus aureus [36]) of 8 µg/mL (≈ 5.52 µM). For the same compound, the MIC (Staphylococcus aureus [37]) was 8 µg/mL (≈ 5.52 µM), the MIC (Staphylococcus aureus [38]) was 8 µg/mL (≈ 5.52 µM) and the MIC (Staphylococcus aureus [39]) was 8 µg/mL (≈ 5.52 µM). It also gave an MIC (Staphylococcus aureus [40]) of 32 µg/mL (≈ 22.1 µM), an MIC (Staphylococcus aureus [41]) of 16 µg/mL (≈ 11 µM) and an MIC (Staphylococcus aureus [42]) of 32 µg/mL (≈ 22.1 µM). The MIC (Staphylococcus aureus [43]) was 8 µg/mL (≈ 5.52 µM), the MIC (Staphylococcus aureus [44]) was 32 µg/mL (≈ 22.1 µM) and the MIC (Staphylococcus aureus [45]) was 8 µg/mL (≈ 5.52 µM). For the same compound, the MIC (Staphylococcus aureus [46]) was 8 µg/mL (≈ 5.52 µM), the MIC (Staphylococcus aureus [47]) was 16 µg/mL (≈ 11 µM) and the MIC (Staphylococcus aureus [48]) was 8 µg/mL (≈ 5.52 µM). The MIC (Staphylococcus aureus [49]) was 8 µg/mL (≈ 5.52 µM), the MIC (Staphylococcus aureus [50]) was 8 µg/mL (≈ 5.52 µM) and the MIC (Staphylococcus aureus [51]) was 8 µg/mL (≈ 5.52 µM). The MIC (Staphylococcus aureus [52]) was 8 µg/mL (≈ 5.52 µM), the MIC (Staphylococcus aureus [53]) was 8 µg/mL (≈ 5.52 µM) and the MIC (Staphylococcus aureus [54]) was 8 µg/mL (≈ 5.52 µM). It also gave an MIC (Staphylococcus aureus [55]) of 8 µg/mL (≈ 5.52 µM), an MIC (Staphylococcus aureus [56]) of 8 µg/mL (≈ 5.52 µM) and an MIC (Staphylococcus aureus [57]) of 8 µg/mL (≈ 5.52 µM).

— ChEMBL document CHEMBL1649524, “Resistance selection studies comparing the activity of razupenem (PTZ601) to vancomycin and linezolid against eight methicillin-resistant and two methicillin-susceptible Staphylococcus aureus strains” (2009)
